This note sets out measurements from PMC4942781, “A sodium channel inhibitor ISTX-I with a novel structure provides a new hint at the evolutionary link between two toxin folds” (Scientific Reports, 2016).

The test system of one assay is TTX-s sodium channel. Nature of the assay: Whole-cell patch clamp, TTX-s sodium currents in rat DRG neurons. The assay is classed as cell-based. How it is done:
The effects of ISTX-I on voltage-gated ion channels were investigated in the dorsal root ganglion (DRG). DRG neurons were held at −80 mV for over 4 min to allow adequate equilibration between the micropipette solution and the cell interior, and then current traces were evoked using a 50 ms step depolarization to −10 mV every second.
Figure 3 Effects of ISTX-I on voltage-gated ion channels in rat DRG neurons. […] (C) Dose-dependent inhibition of ISTX-I on the TTX-s Nav channel (n = 5). (D) Current-voltage (I-V) relationship for the TTX-s Nav channel currents before (solid circles) and after (open circles) the application of 5 μM ISTX-I (n = 5). (E) Conductance–voltage (G-V) relationship of the TTX-s Nav channel before (solid circles) and after (open circles) treatment with 5 μM ISTX-I (n = 5). (F) Steady-state inactivation of the TTX-s Nav channel currents before (solid circles) and after(open circles) the application of 10 μM ISTX-I (n = 5).
Rat DRG cells were acutely dissociated from adult Sprague-Dawley rats[30]. Briefly, adult rats of either sex with body weights of approximately 200 g were killed by decapitation. The dorsal root ganglia were isolated quickly from the spinal cord and then transferred into Dulbecco’s modified Eagle’s medium (DMEM) containing trypsin I (0.15 mg/mL) and collagenase II (0.3 mg/mL) for incubation with an oscillation frequency of 200 rpm at 37 °C for 20 min. The trypsin inhibitor II-S (1 mg/mL) was added to terminate the reaction. The isolated DRG cells were split into 35 mm culture dishes with DMEM solution containing 10% fetal bovine serum (FBS) and were incubated in a CO2 incubator (5% CO2, 95% air, 37 °C) for 1–4 h before the patch-clamp experiment.
(§1) DRG neurons with a large diameter (>[…]) and those with a relatively small diameter (<[…]) were chosen by measuring TTX-s and TTX-r currents, respectively. Meanwhile, TTX (final concentration at 100 nM) was used to separate TTX-r sodium currents from TTX-s sodium currents. Suction pipettes (2.0–4.0 MΩ) were made of borosilicate glass capillary tubes with two-step pulling on a vertical micropipette puller (PC-10, Narishige). Potassium, calcium, and sodium currents were recorded in experimental cells using whole-cell patch-clamp recordings at room temperature, which were performed with an HEK EPC10 patch-clamp amplifier. The P/4 protocol was used to subtract linear capacitive and leakage currents. Experimental data were acquired and analyzed using the programs patch master and Sigmaplot 9.0 (Sigma, USA). All of the data points represent the mean ± SE (n = the number of separate experimental cells examined). Dose-response curves were fitted using the following Hill logistic equation: y = 1 − (1 − fmax)/[1 + ([Tx]/IC50)^n] in which n is an empirical Hill coefficient and fmax is the fraction of current resistant to inhibition at high toxin (Tx) concentrations.
(§2) Electrophysiological studies.
Currents were recorded from experimental cells using whole-cell patch clamptechnique at room temperature (22–25 °C). The patch pipettes were fabricated from borosilicate glass tubing using a two-stage vertical microelectrode puller (PC-10, Narishige, Japan). After establishing the whole-cell recording configuration, the resting potential was held at −80 mV for at least 5 min to allow adequate equilibration between the micropipette solution and the cell interior. The micropipette solution of sodium currents for dorsal root ganglion neurons contained (in mM): 105 […]
Ionic currents were filtered at 3 kHz and sampled at 20 kHz on EPC-9 patch clamp amplifier (HEKA, Lambrecht, Germany).
Supplementary Figure legends
Figure S1. Expression, purification and molecular mass determination of recombinant ISTX-I. A: Separation of ISTX-I by Sephadex G-50 gel filtration. […]
protein molecular weight marker; lanes1&2, ISTX-I/pET-32a(+) uninduced and induced cells, respectively. B: The protein peak (indicated by an arrow) from […]
In general terms: Patch clamp records ionic current or voltage across a cell membrane.

For another assay, the target named is T1, hNav1.7 (Homo sapiens, UniProt Q15858).
T1 construct: expressed in transfected cells; host or cells: HEK293T cells, transient transfection (Lipofectamine-2000)
T1 sequence (Q15858 whole entry): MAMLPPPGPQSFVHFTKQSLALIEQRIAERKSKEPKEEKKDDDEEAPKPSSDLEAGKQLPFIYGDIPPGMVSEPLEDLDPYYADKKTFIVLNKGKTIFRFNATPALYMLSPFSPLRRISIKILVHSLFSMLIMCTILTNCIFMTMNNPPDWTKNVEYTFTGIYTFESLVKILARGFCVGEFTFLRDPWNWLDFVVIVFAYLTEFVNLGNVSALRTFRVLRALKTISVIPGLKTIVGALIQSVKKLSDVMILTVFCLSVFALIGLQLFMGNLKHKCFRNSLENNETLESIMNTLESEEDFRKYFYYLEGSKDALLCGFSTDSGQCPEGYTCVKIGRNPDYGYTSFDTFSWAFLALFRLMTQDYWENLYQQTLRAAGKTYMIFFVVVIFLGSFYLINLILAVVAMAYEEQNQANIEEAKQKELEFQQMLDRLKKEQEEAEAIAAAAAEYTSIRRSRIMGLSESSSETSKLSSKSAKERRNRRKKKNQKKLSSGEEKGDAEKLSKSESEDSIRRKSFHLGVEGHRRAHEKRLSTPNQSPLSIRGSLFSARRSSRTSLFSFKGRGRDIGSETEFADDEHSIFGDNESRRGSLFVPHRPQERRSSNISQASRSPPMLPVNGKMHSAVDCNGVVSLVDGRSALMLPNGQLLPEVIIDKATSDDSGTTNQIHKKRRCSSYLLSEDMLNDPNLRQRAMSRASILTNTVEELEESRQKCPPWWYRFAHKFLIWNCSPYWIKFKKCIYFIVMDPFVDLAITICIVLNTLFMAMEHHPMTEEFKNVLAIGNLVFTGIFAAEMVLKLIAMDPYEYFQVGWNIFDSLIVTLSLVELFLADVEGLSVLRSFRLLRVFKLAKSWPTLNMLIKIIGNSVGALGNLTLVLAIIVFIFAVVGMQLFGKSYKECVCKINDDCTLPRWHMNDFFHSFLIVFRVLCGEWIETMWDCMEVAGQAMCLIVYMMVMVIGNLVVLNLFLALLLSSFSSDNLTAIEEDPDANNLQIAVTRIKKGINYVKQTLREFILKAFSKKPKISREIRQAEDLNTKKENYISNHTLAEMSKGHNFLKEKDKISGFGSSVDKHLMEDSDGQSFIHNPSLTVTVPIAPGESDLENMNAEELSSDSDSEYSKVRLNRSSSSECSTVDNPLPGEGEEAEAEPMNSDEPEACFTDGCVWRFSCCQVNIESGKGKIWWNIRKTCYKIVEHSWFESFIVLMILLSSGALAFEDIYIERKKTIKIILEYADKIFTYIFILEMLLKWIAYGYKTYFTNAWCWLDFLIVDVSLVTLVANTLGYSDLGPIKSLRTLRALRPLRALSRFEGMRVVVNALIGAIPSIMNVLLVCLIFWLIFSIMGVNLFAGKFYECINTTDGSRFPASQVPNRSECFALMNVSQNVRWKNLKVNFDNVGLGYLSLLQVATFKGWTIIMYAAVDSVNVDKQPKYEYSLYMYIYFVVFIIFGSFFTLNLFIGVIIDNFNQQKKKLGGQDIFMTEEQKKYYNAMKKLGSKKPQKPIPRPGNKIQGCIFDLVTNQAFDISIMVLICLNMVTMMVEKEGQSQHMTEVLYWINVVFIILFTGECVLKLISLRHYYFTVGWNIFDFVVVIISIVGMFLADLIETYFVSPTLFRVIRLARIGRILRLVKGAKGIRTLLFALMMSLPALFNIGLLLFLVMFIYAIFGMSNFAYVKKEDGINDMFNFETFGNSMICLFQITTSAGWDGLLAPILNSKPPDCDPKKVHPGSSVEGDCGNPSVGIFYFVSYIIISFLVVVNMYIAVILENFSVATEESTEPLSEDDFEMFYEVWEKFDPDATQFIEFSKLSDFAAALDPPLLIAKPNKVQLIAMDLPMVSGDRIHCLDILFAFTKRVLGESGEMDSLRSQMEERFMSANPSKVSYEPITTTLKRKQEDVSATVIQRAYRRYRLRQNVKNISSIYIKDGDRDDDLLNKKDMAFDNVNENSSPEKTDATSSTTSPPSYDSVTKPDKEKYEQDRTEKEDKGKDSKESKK
T1 sequence (Q07699 19-218, further chain): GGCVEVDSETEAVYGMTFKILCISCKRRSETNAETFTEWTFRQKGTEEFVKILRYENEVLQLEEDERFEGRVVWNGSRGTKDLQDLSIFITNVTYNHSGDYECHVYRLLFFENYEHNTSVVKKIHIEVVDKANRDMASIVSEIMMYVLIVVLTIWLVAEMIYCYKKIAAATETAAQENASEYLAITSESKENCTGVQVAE
The assay is described as follows: Whole-cell patch clamp, hNav1.7 in HEK293T cells. The assay is classed as cell-based. How it is done: Figure 4 Effects of ISTX-I expressed in HEK293 cells. Current traces were evoked with a 50ms step depolarization to −10 mV from a holding potential of −80 mV every 5s. […] (E) Steady-state inactivation of the hNav1.7 channel before (solid circles) and after (open circles) the application of 10 μM ISTX-I (n = 5).
The effects of ISTX-I on the activation and inactivation kinetics of hNav1.7 were also analyzed. The current-voltage relationships were determined for Nav1.7 channels using step depolarization ranging from −80 to +40 mV from a holding potential of −80 mV.
HEK293T (human embryonic kidney) cells were grown in DMEM containing 10% heat-inactivated FBS at 37 °C in a 5% CO2 incubator. The cDNA genes encoding human (h)Nav1.1, (h)Nav1.2, (h)Nav1.3, (h)Nav1.4, (h)Nav1.5, (h)Nav1.6 and (h)Nav1.7 were transiently transfected into HEK293T cells for electrophysiology using Lipofectamine-2000 (Invitrogen) in serum-reduced medium (Opti-MEM, Invitrogen) following the manufacturer’s instructions. The auxiliary subunits hβ1 and enhanced green florescent protein plasmids were cotransfected into HEK293T cells to increase the current density and efficiently select cells with green florescent protein for whole-cell patch-clamp recordings. After 12 h, the HEK293T cells were used for electrophysiological analysis.
as §1, §2
Currents were recorded from experimental cells using whole-cell patch clamptechnique at room temperature (22–25 °C). The patch pipettes were fabricated from borosilicate glass tubing using a two-stage vertical microelectrode puller (PC-10, Narishige, Japan). […]

Where [1] appears, read: 5 μM ISTX-I, step depolarization from −80 to +40 mV, holding −80 mV.

“Also recorded” adds a separate entry of the source. Bridge positions count the residues as written; N and C are the ends. Ends that are not written are not given here.

As to “LCSENGDCAADECCVDTVFEGDMVTRSCEKTTGNFTECPGLTPIA (disulfide 2-14, 8-28, 13-38) [ISTX-I]”, the “effect on TTX-s sodium channels (summary)” value in the assay on TTX-s sodium channel is given as “specifically inhibited TTX-s sodium channels”. Further, the “Inhibition of TTX-s Nav channel currents” value with TTX-s sodium channel (1 μM ISTX-I (legend of Fig. 3A)) is listed as “Inhibition of TTX-s Nav channel currents”. For the same sequence, in the assay on TTX-s sodium channel (2 μM ISTX-I, 50 ms step depolarization to −10 mV, held at −80 mV, room temperature), the “reduction of TTX-s sodium channel currents” value is recorded as “approximately 50%”. In the assay on TTX-s sodium channel (5 μM ISTX-I, TTX-s, n = 5), the “change of conductance–voltage (G-V) relationship” value is given as “No changes” and the “shift of current–voltage (I-V) curve” value is “No changes”. In addition, the “shift of steady-state inactivation curve, hyperpolarized direction” value in the assay with TTX-s sodium channel (10 μM ISTX-I, TTX-s, n = 5) is given as “approximately 11 mV”. In addition, in the assay on TTX-s sodium channel (Hill equation fit, 50 ms step to −10 mV from −80 mV, mean ± SE, n = 5), the IC50 (in general, the concentration needed to halve the response being measured) was found to be 2.5 ± 1.4 µM. The “effect on hNav1.7 channel currents” value at hNav1.7 (1 μM ISTX-I, 50 ms step to −10 mV from −80 mV every 5 s) is given as “significantly depressed; also recorded: Inhibition of hNav1.7”. In addition, on hNav1.7 (setting [1]), the “shift of conductance–voltage (G-V) curve” value is “no effect; also recorded: did not shift” and the “shift of current-voltage (I-V) curve” value is “no effect; also recorded: did not shift”. Also, the “shift of steady-state inactivation curve” value at hNav1.7 (10 μM ISTX-I, hNav1.7, n = 5) is “approximately −10 mV”.
